{"source": "patent US7897349B2", "about": "“Macrophage migration inhibitory factor (MIF) as marker for urological inflammatory disease” (The United States of America as represented by the …, priority 2003, dated 2011)", "key": {"prostate and bladder": {"system": "prostate and bladder", "text": "In CPPS, prostatic inflammation is suspected to result in referred visceral pain and urodynamic changes. Therefore, we established a model of prostatitis that would allow the study of histological, molecular and physiological changes in the bladder and the prostate, in an effort to correlate it to visceral referred pain."}, "bladder and the prostate": {"system": "bladder and the prostate", "assay": "Systemic substance P (SP) model of neurogenic inflammation in the bladder and prostate", "type": "in vivo, rat", "text": "We sought to determine if neurogenic inflammation alone (without producing damage or insult to the bladder epithelia, as was the case in the acid and LPS cystitis models) was also able to alter MIF levels in the bladder. In addition, we examined the prostate for signs of inflammation. Systemic injections of SP elicited plasma extravasation and edema (neurogenic inflammation) in the bladder and the prostate. We examined MIF and cox-2 to compare the results with our previous models of bladder injury (acid and LPS). In addition, we examined nerve growth factor (NGF) and the proto-oncogene c-fos."}, "bladder": {"system": "bladder", "assay": "Substance P induced changes in CD74, CD44, p-ERK1/2 and MIF in the rat bladder", "type": "in vivo", "details": "subcutaneous SP 40 μg/kg; one hour", "protocol": "The materials and methods are identical to Meyer-Siegler et al. (Journal of Urology 173: February, 2005), the disclosure of which is incorporated herein by reference. In anesthetized rats, the bladder was isolated by cutting the ureters and urine was replaced by saline as intraluminal fluid ([…]). One hour after subcutaneous SP (40 μg/kg) or saline administration, the ILF and bladder were collected. Bladder tissue was analyzed for CD74 and CD44 by immunohistochemistry. Western blot analysis determined the relative amounts of bladder tissue MIF, CD74, CD44, and p-ERK1/2. ILF immunoprecipitation followed by Western blot analysis was performed to identify an association of MIF with CD74 and/or CD44"}, "[1]": {"system": "bladder, lumbosacral spinal cord, DRG and MPG", "assay": "Intravesical bacterial endotoxin (LPS) model of bladder inflammation", "type": "in vivo, rat", "text": "Intravesical instillation of a bacterial endotoxin (lipopolysaccharide from E. Coli) has been documented to produce histological signs of bladder inflammation (Stein et al., J. Urol. 155: 1133-1138, 1996; Saban et al., Am. J Pathol. 160: 2095-2110, 2002; Wheeler et al., Eur. J Pharmacol. 417: 239-248, 2001). […] Therefore, we examined the effects of intravesical LPS on the levels of MIF and cox-2 on the bladder, lumbosacral spinal cord, DRG and MPG."}}, "note": "Ends that are not written are not given here."}
{"compound": "C=O", "note": "[formalin]", "values": [{"measurement": "MIF protein level in the bladder", "setting": "prostate and bladder; animals receiving formalin in the prostate", "result": "significantly reduced"}, {"measurement": "persistence of bladder hyperreflexia", "setting": "prostate and bladder; chemical irritation of the prostate", "result": "at least 1 hour"}, {"measurement": "bladder intercontraction interval", "setting": "prostate and bladder; formalin injected into the prostate, maximal in first ten minutes, persisted 60 min", "result": "significant decrease"}]}
{"compound": "Substance P (RPKPQQFFGLM-NH2; ends and bridges not checked; UniProt P20366 58-68, looked up) [SP, tachykinin; systemic injection used as model of neurogenic inflammation]", "values": [{"measurement": "cox-2 and c-fos levels in the bladder and the prostate", "setting": "bladder and the prostate; SP group", "result": "significantly elevated"}, {"measurement": "MIF levels in the urine and serum", "setting": "bladder and the prostate; SP treated animals with isolated bladders", "result": "significantly increased"}, {"measurement": "content of MIF in bladders and prostates", "setting": "bladder and the prostate; SP treated compared to saline treated", "result": "marked decrease"}, {"measurement": "edema in the lamina propria of the bladder (Mean)", "setting": "bladder and the prostate; SP treated rats compared to saline treated rats, p<0.05", "result": "2.69±0.1"}, {"measurement": "NGF levels in the prostate and the urine", "setting": "bladder and the prostate; SP treated rats, not elevated in the bladder", "result": "significantly elevated"}, {"measurement": "CD74 and CD44 bladder immunostaining", "setting": "bladder", "result": "increased"}, {"measurement": "MIF release from the bladder", "setting": "bladder", "result": "significant MIF release"}, {"measurement": "total bladder CD74 protein and mRNA, intracellular domain CD44, p-ERK1/2 and soluble CD44 in the ILF", "setting": "bladder", "result": "increased"}]}
{"compound": "lipopolysaccharide from E. Coli [LPS]", "values": [{"measurement": "histological changes of the bladder", "setting": "[1]; intravesical LPS", "result": "marked histological changes indicative of cystitis"}, {"measurement": "MIF protein and mRNA in all the tissues, including the bladder", "setting": "[1]; intravesical LPS treated rats", "result": "significant increases"}]}
